Experimental data as given in PMC7966987, “Insights into the catalytic properties of the mitochondrial rhomboid protease PARL” (The Journal of Biological Chemistry, 2021).

Legend:
Type in all cases: biochemical
PARLΔ77 [1] = target: T1, PARLΔ77 (Homo sapiens, UniProt Q9H300); experiment: IQ-peptide substrate cleavage kinetics, PARLΔ77 in proteoliposomes; conditions: PARLΔ77 in PLs (E. coli polar lipids), 50 mM Tris-HCl pH 7.0, 150 mM NaCl, 10% glycerol, no DDM, 37 °C, mean ± SEM
T1 construct: GFP-hexahistidine (behind a TEV cleavage site) (C, cleaved yes); made in house; host or cells: Pichia pastoris
T1 sequence (Q9H300 78-379): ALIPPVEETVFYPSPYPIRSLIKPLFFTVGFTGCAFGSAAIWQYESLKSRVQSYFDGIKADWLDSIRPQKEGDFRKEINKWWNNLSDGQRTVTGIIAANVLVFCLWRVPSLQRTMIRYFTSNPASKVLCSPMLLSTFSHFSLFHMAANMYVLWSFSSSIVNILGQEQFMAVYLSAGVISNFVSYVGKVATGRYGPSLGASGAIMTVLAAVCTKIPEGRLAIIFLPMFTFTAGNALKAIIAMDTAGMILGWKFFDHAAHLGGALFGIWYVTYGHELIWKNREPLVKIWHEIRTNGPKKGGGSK

PARLΔ77 [2] = target: T1, PARLΔ77; experiment: IQ-peptide substrate cleavage kinetics, PARLΔ77 in POPE/POPC proteoliposomes lacking CL; conditions: pH 7.0, 37 °C, mean ± SEM, n=3
From the text: To examine if CL influences PARL activity in a membrane environment, we prepared PL samples containing β-truncated PARL and conducted detailed kinetic analysis with the three IQ-peptide substrates (Fig. 3B). Two independent PL samples were generated: the first consisted only of POPC and POPE, while the second also contained CL. […] When CL was omitted from the PL, we observed two to tenfold slower turnover rates of cleavage for IQ-peptide substrates by β-truncated PARL (Fig. 3B and Table S7).
(§1) Assays with FRET-PINK1^70–134 were conducted as previously described ([26]). For EDANS/Dabcyl 10-mer IQ peptides (PINK1, PGAM5, Smac/Diablo), lyophilized peptides were initially dissolved in DMSO to obtain a stock solution. The IQ peptide substrates in a concentration range of 0.1–70 μM were incubated with activity assay buffer (50 mM Tris-HCl pH 7.0, 150 mM NaCl, 10% glycerol, 0.1% DDM) in a 384-well black-bottomed plate at 37 °C for 30 min in a multiwell plate reader (SynergyMx, BioTek). For all concentrations of IQ peptide, the DMSO was kept constant at 5%. Following preincubation, PARL was added to a final concentration of 0.8 μM to initiate the cleavage reaction. Fluorescence readings were taken every 3 min over a 3 h time course at ƛex = 336 nm and ƛem = 490 nm. The initial velocity was determined from the fluorescence readings over the time course. For each substrate concentration, a no-enzyme control was subtracted to eliminate background fluorescence changes not related to substrate cleavage. Relative fluorescence units were converted to concentration (μM) by determining the maximum change in fluorescence observed for each substrate concentration when fully digested. GraphPad Prism software was used for Michaelis–Menten analysis of kinetic curves. All kinetic data were obtained using at least three biological replicates (different enzyme preparations) with technical duplicates for each experiment. For kinetic measurements in detergent with all three substrates, the activity assays were repeated at least five times. In addition, after each protease purification, the quality control of purified PARL was controlled by measuring its enzymatic activity. Minimum of three experimental replicates with two technical replicates were used for data analysis.
E. coli polar lipids (Avanti), 400 μg in chloroform, were dried under nitrogen stream in a glass tube to yield a thin film of lipid. The tube was incubated overnight in a desiccator to completely remove all traces of solvent. In total, 50 μl of water and DDM detergent was added to the lipid film for resuspension at room temperature for 10 min, followed by the addition of purified PARL (400 μg) in 50 mM Tris-HCl, pH 8.0, 150 mM NaCl, 20% glycerol, 0.1% DDM, to yield the final weight ratio of 1 PARL:1 lipid:2 detergent. The detergent was slowly removed by the addition of SM2 Biobeads (Bio-Rad) while stirring on ice for 6 h to allow for the generation of proteoliposomes (PL); the process was controlled by the regimen of Biobead addition. To purify the PL, 50%:20% sucrose density gradient ultracentrifugation was used. A TAMRA probe (ThermoFisher) was used to determine the orientation of reconstituted PARL, which specifically and covalently labels serine residues of an enzymatically active serine protease. In total, 2 μM of TAMRA probe was added to PL samples and incubated for 1 h, allowing the TAMRA probe to label only the outward-facing accessible active sites. The same amount of PL, but with 1% DDM added to dissolve lipid vesicles incubated with 2 μM of TAMRA probe at the same conditions, was used as a benchmark for 100% accessible protein amount. The reaction was quenched with addition of SDS-containing sample buffer and the protein samples were visualized with SDS-PAGE followed by fluorescent gel scanning. The bands were quantified by densitometry analysis. […]

human PARLΔ77 = experiment: IQ-peptide substrate cleavage kinetics, β-cleavage PARLΔ77 in detergent; conditions: for fold change Km/kcat, PARLΔ77/PARLΔ55 / fold change kcat, PARLΔ77/PARLΔ55: PARL in DDM; for turnover rate with PARLΔ77 compared with PARLΔ55 / ranking of substrate cleavage: in detergent; for ranking of substrate cleavage: PARLΔ55 and PARLΔ77, by kcat or kcat/KM
From the text: (§2) To further evaluate the cleavage of other known substrates of PARL, we adopted a more facile system to examine cleavage of multiple substrates and generated internally quenched (IQ) peptide substrates ([25], [36], [37], [38]) based on the amino acids flanking the PARL cleavage sites of PINK1 ([39]), PGAM5 ([8]), and Smac/Diablo ([11]). […] The assay allowed us to determine the catalytic parameters for the three primary PARL substrates and examine the substrate specificity (Fig. 2, Tables S2–S4).
as §1

PARLΔ77 [3] = target: T1, PARLΔ77; experiment: as above; conditions: PARLΔ77 0.8 μM in 0.1% DDM with CL, 50 mM Tris-HCl pH 7.0, 150 mM NaCl, 10% glycerol, 5% DMSO, 37 °C, fluorescence; mean ± SEM
From the text: as §2, §1

Substance | Km (PARLΔ77 [1]) [µM] | kcat (turnover rate) (PARLΔ77 [1]) [s⁻¹] | kcat/KM (catalytic efficiency) (PARLΔ77 [1]) [M⁻¹ s⁻¹] | Km (PARLΔ77 [2]) [µM] | kcat (turnover rate) (PARLΔ77 [2]) [s⁻¹] | kcat/KM (catalytic efficiency) (PARLΔ77 [2]) [M⁻¹ s⁻¹] | fold change Km/kcat, PARLΔ77/PARLΔ55 (human PARLΔ77) [fold] | fold change kcat, PARLΔ77/PARLΔ55 (human PARLΔ77) [fold] | turnover rate with PARLΔ77 compared with PARLΔ55 (human PARLΔ77) | Km (PARLΔ77 [3]) [µM] | kcat (turnover rate) (PARLΔ77 [3]) [s⁻¹] | kcat/KM (catalytic efficiency) (PARLΔ77 [3]) [M⁻¹ s⁻¹] | kcat/KM (catalytic efficiency) (PARLΔ77 [1]; listed as PGAM5) [M⁻¹ s⁻¹] | kcat/KM (catalytic efficiency) (PARLΔ77 [1]; listed as PGAM520-29) [M⁻¹ s⁻¹] | ranking of substrate cleavage (human PARLΔ77) | kcat (turnover rate) (PARLΔ77 [1]; listed as Smac/Diablo) [s⁻¹] | kcat (turnover rate) (PARLΔ77 [1]; listed as Smac/Diablo51-60) [s⁻¹] | turnover rate with PARLΔ77 compared with PARLΔ55 (human PARLΔ77; listed as IQ-Smac/Diablo) | turnover rate with PARLΔ77 compared with PARLΔ55 (human PARLΔ77; listed as Smac/Diablo)
(DABCYL)-AVFLAFGLGL-Glu(EDANS) [IQ-PINK1^99–108, internally quenched DABCYL/EDANS peptide substrate based on PINK1 PARL cleavage site] | 8 ± 1 | 0.00778 ± 0.00056 | 972 ± 170 | 14 ± 5 | 0.0019 ± 0.00028 | 140 ± 56 | 2 | 3 | increased | 3.3 ± 0.5 | 0.000361 ± 2.8e-05 | 110 ± 28 | – | – | – | – | – | – | –
(DABCYL)-AVFLSAVAVG-Glu(EDANS) [IQ-PGAM5^20–29, internally quenched DABCYL/EDANS peptide substrate based on PGAM5 PARL cleavage site] | 0.8 ± 0.2 | 0.00583 ± 0.00028 | – | 8 ± 3 | 0.0025 ± 0.00056 | 278 ± 83 | 0.6 | 2 | increased | 1.6 ± 0.2 | 0.000272 ± 1.1e-05 | 170 ± 28 | 7220 ± 2200 | 7220 ± 2200 | most efficiently cleaved | – | – | – | –
(DABCYL)-GVT LCAVPIA-Glu(EDANS) [IQ-Smac/Diablo^51–60, internally quenched DABCYL/EDANS peptide substrate based on Smac/Diablo PARL cleavage site] | 17 ± 4 | – | 944 ± 280 | 3.8 ± 1 | 0.00133 ± 8.3e-05 | 333 ± 83 | 1 | 1 | – | 5 ± 1 | 0.000333 ± 2.8e-05 | 83 ± 28 | – | – | fastest cleaved | 0.0161 ± 0.0019 | 0.0161 ± 0.0019 | no significant difference | remained unchanged
